The results in this text go back to EP2140864A2 (H. Lundbeck A/S, priority 2001, dated 2002).

pKi: −log10 of the molar value. Like-named read-outs stand apart in the source and are kept apart here.

In assay [1] the target is T1, human GAL2 receptor (Homo sapiens, UniProt O43603).
T1 construct: expressed in transfected cells
T1 sequence (O43603 1-387): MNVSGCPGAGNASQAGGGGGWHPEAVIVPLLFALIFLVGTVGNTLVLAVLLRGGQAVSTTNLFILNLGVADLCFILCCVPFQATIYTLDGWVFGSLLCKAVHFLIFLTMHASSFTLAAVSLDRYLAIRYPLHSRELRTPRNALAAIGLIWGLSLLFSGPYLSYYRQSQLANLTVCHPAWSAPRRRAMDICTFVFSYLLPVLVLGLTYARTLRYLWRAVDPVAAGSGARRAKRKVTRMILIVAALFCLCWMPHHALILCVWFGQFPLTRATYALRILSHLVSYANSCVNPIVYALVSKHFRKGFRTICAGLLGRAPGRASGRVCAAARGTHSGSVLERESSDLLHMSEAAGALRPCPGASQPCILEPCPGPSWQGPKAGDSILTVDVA
Nature of the assay: Radioligand binding at cloned human GAL2 receptor. The essentials:
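Membranes from CHO cells stably expressing human GAL2 and LM(tk-) cells stably expressing human GAL1, resuspended in binding buffer (10 mM NaCl, 20 mM HEPES, pH 7.4). Binding data fitted by nonlinear regression.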

Assay [2] concerns the target T2, human 5HT1A receptor (Homo sapiens, UniProt P08908).
T2 construct: expressed in transfected cells; host or cells: COS-7 cells, transient (pCEXV-3 vector)
T2 sequence (P08908 1-422): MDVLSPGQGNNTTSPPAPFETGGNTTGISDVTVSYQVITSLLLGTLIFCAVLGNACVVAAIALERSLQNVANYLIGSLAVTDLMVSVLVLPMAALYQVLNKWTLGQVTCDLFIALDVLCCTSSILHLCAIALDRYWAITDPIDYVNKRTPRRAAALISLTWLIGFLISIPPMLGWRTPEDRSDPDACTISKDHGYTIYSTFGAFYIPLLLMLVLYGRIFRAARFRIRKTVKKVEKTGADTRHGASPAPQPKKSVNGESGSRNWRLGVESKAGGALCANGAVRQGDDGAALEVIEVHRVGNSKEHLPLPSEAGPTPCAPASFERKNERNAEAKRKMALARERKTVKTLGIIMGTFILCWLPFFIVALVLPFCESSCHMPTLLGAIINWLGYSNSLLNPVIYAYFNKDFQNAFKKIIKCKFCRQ
Nature of the assay: Radioligand binding, 5-HT1A receptor (3H-8-OH-DPAT). The protocol:
5-HT1A Receptor: The cDNA corresponding to the 5-HT1A receptor open reading frames and variable non-coding 5'-and 3'-regions, was cloned into the eukaryotic expression vector pCEXV-3. These constructs were transfected transiently into COS-7 cells by the DEAE-dextran method (Cullen, 1987), and harvested after 72 hours. Radioligand binding assays were performed as described above for the 5-HT2A receptor, except that ^3H-8-OH-DPAT was used as the radioligand and nonspecific binding was determined by the addition of 10 µM mianserin.
(§1) Binding data were analyzed using nonlinear regression and statistical techniques available in the GraphPAD Prism package (San Diego, CA). Enzymatic assay data were derived from a standard curve of reference compound data.

For assay [3], the target named is DA transporter (Rattus norvegicus, UniProt P23977). Nature of the assay: Binding at native DA transporter. The protocol:
The binding properties of the compounds of the present invention were evaluated at one or more cloned receptors or native, tissue-derived transporters, using protocols described below.
The methods to determine binding affinity at native transporters are described in the following publications: 5HT transporter and NE transporter (Owens et al., 1997), and DA transporter (Javitch et al, 1984).
as §1

For assay [4], the target named is T3, human dopamine D2 (Homo sapiens, UniProt P14416).
T3 construct: purchased BioSignal, Inc. (Montreal, Canada)
Nature of the assay: Radioligand binding, dopamine D2 receptor.
Description: Other receptors: Cell membranes expressing human dopamine D1, D2, D4 and rat D3 receptors were purchased through BioSignal, Inc. (Montreal, Canada). Binding assays using the histamine H1 receptor; dopamine receptors; and α1A, α1E, and α2 adrenergic receptors may be carried out according to the procedures described in U.S. Patent No. 5,780,485, the disclosure of which is hereby incorporated by reference in its entirety into this application. Binding assays using the dopamine D5 receptor may be carried out according to the procedures described in U.S. Patent No. 5,882,855, the disclosure of which is hereby incorporated by reference in its entirety into this application. Binding assays for the human α1D adrenergic receptor may be carried out according to the procedures described in U.S. Patent No. 6,156,518, the disclosure of which is hereby incorporated by reference in its entirety into this application.
as §1

[5] abbreviates: Table 8; Ki h5HT1A divided by Ki hGAL3.
Setting [6] is: Table 7; native transporter, head prints r (rat); read-out: rDA Uptk Ki.
Setting [7] is: Table 8; Ki rDA Uptk divided by Ki hGAL3.
[8] abbreviates: Table 10; Ki hD2 divided by Ki hGAL3.
[9] abbreviates: pyrimidines, read-out: Ki GalR2.

In general, pKi refers to the negative decadic logarithm of the Ki, by convention in mol/L.

DA transporter, sequence (P23977 whole entry): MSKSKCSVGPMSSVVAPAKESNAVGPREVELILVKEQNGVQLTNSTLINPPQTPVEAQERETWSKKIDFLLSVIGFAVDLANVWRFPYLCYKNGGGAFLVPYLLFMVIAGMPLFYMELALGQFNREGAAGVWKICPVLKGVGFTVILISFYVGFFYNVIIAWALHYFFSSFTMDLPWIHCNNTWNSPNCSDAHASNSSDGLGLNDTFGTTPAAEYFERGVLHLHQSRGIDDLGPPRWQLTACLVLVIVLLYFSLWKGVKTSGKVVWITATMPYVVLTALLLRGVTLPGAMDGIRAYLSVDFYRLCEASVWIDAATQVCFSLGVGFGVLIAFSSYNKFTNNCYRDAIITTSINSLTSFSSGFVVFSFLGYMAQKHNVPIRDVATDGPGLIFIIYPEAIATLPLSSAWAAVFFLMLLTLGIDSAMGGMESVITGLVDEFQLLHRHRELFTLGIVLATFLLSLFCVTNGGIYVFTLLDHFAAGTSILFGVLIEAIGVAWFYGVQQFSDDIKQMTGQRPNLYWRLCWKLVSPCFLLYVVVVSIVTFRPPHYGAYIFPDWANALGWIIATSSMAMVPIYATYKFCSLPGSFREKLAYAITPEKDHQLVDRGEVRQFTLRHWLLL
T3 sequence (P14416 whole entry): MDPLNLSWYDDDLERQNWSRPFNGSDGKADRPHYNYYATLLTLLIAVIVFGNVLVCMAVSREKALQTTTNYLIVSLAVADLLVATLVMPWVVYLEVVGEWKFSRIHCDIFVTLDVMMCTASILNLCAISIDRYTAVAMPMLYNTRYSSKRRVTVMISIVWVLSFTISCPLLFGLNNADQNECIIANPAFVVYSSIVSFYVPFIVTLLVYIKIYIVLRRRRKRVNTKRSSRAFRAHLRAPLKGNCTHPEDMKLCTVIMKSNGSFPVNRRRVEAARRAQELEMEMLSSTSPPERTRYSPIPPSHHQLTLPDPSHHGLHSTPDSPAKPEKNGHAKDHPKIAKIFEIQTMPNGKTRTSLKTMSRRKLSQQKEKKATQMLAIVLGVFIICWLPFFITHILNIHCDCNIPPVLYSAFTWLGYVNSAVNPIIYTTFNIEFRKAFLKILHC

For the compound `O=C1C(=Nc2ccc(C(F)(F)F)cc2)c2ccccc2N1c1ccccc1` [Example 95, 1-PHENYL-3-[[4-(TRIFLUOROMETHYL)PHENYL]IMINO]-1,3-DIHYDRO-2H-INDOL-2-ONE], the pKi in assay [1] (indolones, read-out: Ki GalR2) is under 5.00; in assay [2] (Table 7; read-out: h5HT1A Ki) it was 4.55; in assay [3] (setting [6]), 4.92; in assay [4] (Table 9; read-out: hD2 Ki), 5.01. Besides, the “selectivity ratio h5HT1A” value in assay [2] (setting [5]) is over 100. Also, the “selectivity ratio rDA Uptk” value in assay [3] (setting [7]) is listed as over 100. In assay [4] (setting [8]), the “selectivity ratio hD2” value is over 100.
For `Cc1ccc(Nc2cc(N(C)C)nc(N(C)CCc3c[nH]c4ccccc34)n2)cc1` [Example 77], the pKi in assay [1] (setting [9]) was 6.15; in assay [2] (Table 7; read-out: h5HT1A Ki) it was 5.26; in assay [3] (setting [6]), 5.55; in assay [4] (Table 9; read-out: hD2 Ki), 6.04. Besides, the “selectivity ratio h5HT1A” value in assay [2] (setting [5]) is recorded as over 30. Besides, the “selectivity ratio rDA Uptk” value in assay [3] (setting [7]) is over 30. The “selectivity ratio hD2” value in assay [4] (setting [8]) worked out at 11.
As for `Cc1ccc(Nc2cc(N3CCCCC3)nc(N(C)CCc3ccccc3)n2)cc1` [Example 22], the pKi in assay [1] (setting [9]) is 6.75; in assay [2] (Table 7; read-out: h5HT1A Ki), 5.01; in assay [3] (setting [6]), 5.13; in assay [4] (Table 9; read-out: hD2 Ki), 5.82. In assay [2] (setting [5]), the “selectivity ratio h5HT1A” value is listed as over 100. In addition, in assay [3] (setting [7]), the “selectivity ratio rDA Uptk” value is given as over 100. In addition, the “selectivity ratio hD2” value in assay [4] (setting [8]) is over 30.
For `O=C1C(=Nc2ccc(Cl)cc2)c2ccccc2N1c1ccccc1` [Example 97, 3-[(4-CHLOROPHENYL)IMINO]-1-PHENYL-1,3-DIHYDRO-2H-INDOL-2-ONE], the pKi in assay [1] (indolones, read-out: Ki GalR2) is under 5.00; in assay [2] (Table 7; read-out: h5HT1A Ki), under 4.30; in assay [3] (setting [6]), 5.07; in assay [4] (Table 9; read-out: hD2 Ki) it was under 4.30. Also, in assay [2] (setting [5]), the “selectivity ratio h5HT1A” value is listed as over 100. Also, the “selectivity ratio rDA Uptk” value in assay [3] (setting [7]) was over 100. For the same compound, in assay [4] (setting [8]), the “selectivity ratio hD2” value is recorded as over 100.
`COc1cccc(Nc2cc(N3CCCCC3)nc(N(C)CCc3c[nH]c4ccccc34)n2)c1` [Example 17]: the pKi in assay [1] (setting [9]) is 5.68; in assay [2] (Table 7; read-out: h5HT1A Ki), 5.46; in assay [3] (setting [6]) it was 4.57; in assay [4] (Table 9; read-out: hD2 Ki), 5.74. The “selectivity ratio h5HT1A” value in assay [2] (setting [5]) is on record as over 30. The “selectivity ratio rDA Uptk” value in assay [3] (setting [7]) is given as over 100. In addition, in assay [4] (setting [8]), the “selectivity ratio hD2” value is 21.
As to `COC[C@@H]1[C@@H](c2ccccc2)OCCN1c1nc(Nc2ccc(C)cc2)cc(N2CCCCC2)n1` [Example 49], the pKi in assay [1] (read-out: Ki GalR2, pyrimidines) is 5.49; in assay [2] (read-out: h5HT1A Ki; Table 7), 4.53; in assay [3] (read-out: rDA Uptk Ki; Table 7; native transporter, head prints r (rat)), 5.70; in assay [4] (read-out: hD2 Ki; Table 9), 5.23. In addition, the “selectivity ratio h5HT1A” value in assay [2] (setting [5]) was over 100. The “selectivity ratio rDA Uptk” value in assay [3] (setting [7]) was 10. In addition, the “selectivity ratio hD2” value in assay [4] (setting [8]) came to 28.
Consider `CN(C)c1cc(Nc2ccc(Cl)c(Cl)c2)nc(Nc2ccccc2)n1` [Example 60], for which the pKi in assay [1] (setting [9]) is under 5.30; in assay [2] (Table 7; read-out: h5HT1A Ki) it was 4.47; in assay [3] (setting [6]) it was 4.84; in assay [4] (Table 9; read-out: hD2 Ki), 4.57. In addition, the “selectivity ratio h5HT1A” value in assay [2] (setting [5]) was over 100. Moreover, the “selectivity ratio rDA Uptk” value in assay [3] (setting [7]) is given as over 100. For the same compound, the “selectivity ratio hD2” value in assay [4] (setting [8]) is given as over 100.
Regarding `O=C1C(=Nc2ccc(Br)cc2)c2ccccc2N1c1ccccc1` [Example 98, 3-[(4-BROMOPHENYL)IMINO]-1-PHENYL-1,3-DIHYDRO-2H-INDOL-2-ONE], the pKi in assay [1] (indolones, read-out: Ki GalR2) was under 5.00; in assay [2] (Table 7; read-out: h5HT1A Ki), 4.61; in assay [3] (setting [6]) it was 5.13; in assay [4] (Table 9; read-out: hD2 Ki), 5.42. Further, the “selectivity ratio h5HT1A” value in assay [2] (setting [5]) is recorded as over 100. In addition, the “selectivity ratio rDA Uptk” value in assay [3] (setting [7]) is listed as over 100. The “selectivity ratio hD2” value in assay [4] (setting [8]) is listed as over 100.
As for `O=C1C(=Nc2cc(Cl)cc(Cl)c2)c2ccccc2N1c1ccccc1` [Example 103, 3-[(3,5-DICHLOROPHENYL)IMINO]-1-PHENYL-1,3-DIHYDRO-2H-INDOL-2-ONE], the negative logarithm of the Ki (pKi) in assay [1] (indolones, read-out: Ki GalR2) was under 5.00.
`O=C1C(=Nc2cccc(Cl)c2)c2ccccc2N1c1ccccc1` [Example 94, 3-[(3-CHLOROPHENYL)IMINO]-1-PHENYL-1,3-DIHYDRO-2H-INDOL-2-ONE]: the pKi in assay [1] (indolones, read-out: Ki GalR2) was under 5.00; in assay [2] (Table 7; read-out: h5HT1A Ki), under 4.30; in assay [3] (setting [6]), 5.66; in assay [4] (Table 9; read-out: hD2 Ki), 5.20. Further, in assay [2] (setting [5]), the “selectivity ratio h5HT1A” value is reported as over 100. Also, the “selectivity ratio rDA Uptk” value in assay [3] (setting [7]) was over 130. In addition, the “selectivity ratio hD2” value in assay [4] (setting [8]) was over 100.
As for `Cc1ccc(Nc2cc(N3CCCCC3)nc(N(C)CCc3c[nH]c4ccccc34)n2)cc1` [Example 11], the pKi in assay [1] (setting [9]) is 6.17; in assay [2] (Table 7; read-out: h5HT1A Ki), 5.33; in assay [3] (setting [6]) it was 5.27; in assay [4] (Table 9; read-out: hD2 Ki), 6.11. Moreover, in assay [2] (setting [5]), the “selectivity ratio h5HT1A” value was over 30. Further, the “selectivity ratio rDA Uptk” value in assay [3] (setting [7]) is over 30. Besides, the “selectivity ratio hD2” value in assay [4] (setting [8]) is on record as 9.
For `CN(CCc1c[nH]c2ccccc12)c1nc(Nc2ccc(F)c(F)c2)cc(N2CCCCC2)n1` [Example 15], the pKi in assay [1] (setting [9]) is 6.20; in assay [2] (Table 7; read-out: h5HT1A Ki), 5.29; in assay [3] (setting [6]), 4.61; in assay [4] (Table 9; read-out: hD2 Ki), 5.66. For the same compound, the “selectivity ratio h5HT1A” value in assay [2] (setting [5]) is over 30. In assay [3] (setting [7]), the “selectivity ratio rDA Uptk” value was over 100. Besides, the “selectivity ratio hD2” value in assay [4] (setting [8]) is listed as 30.
For the compound `O=C1C(=Nc2cccc(C(F)(F)F)c2)c2ccccc2N1c1ccccc1` [Example 92, 1-PHENYL-3- [[3-(TRIFLUOROMETHYL)PHENYL]IMINO]-1,3-DIHYDRO-2H-INDOL-2-ONE], in assay [2] (setting [5]), the “selectivity ratio h5HT1A” value is over 100. In addition, the “selectivity ratio rDA Uptk” value in assay [3] (setting [7]) is listed as over 100. Besides, the “selectivity ratio hD2” value in assay [4] (setting [8]) is over 100.
For `Cc1ccc(Nc2cc(N3CCCCC3)nc(N3CCN(c4ncccc4C(F)(F)F)CC3)n2)cc1` [Example 34], the figures for the pKi in assay [1] (setting [9]), in assay [3] (setting [6]) and in assay [4] (Table 9; read-out: hD2 Ki) were 6.77, 5.41 and 5.60, respectively. Further, in assay [2] (setting [5]), the “selectivity ratio h5HT1A” value is over 100. In assay [3] (setting [7]), the “selectivity ratio rDA Uptk” value is listed as over 100. Moreover, the “selectivity ratio hD2” value in assay [4] (setting [8]) is given as over 100.
